Assay [1] concerns P. aeruginosa. The conditions noted are these: native peptide; cited from earlier work.
Assay [2] deals with E. coli. The conditions noted are these: native peptide; cited from earlier work.
Assay [3] concerns C. albicans. Particulars: native peptide; cited from earlier work.
Assay [4] has as its system P. aeruginosa (PA01). The experiment in a line: Transmission electron microscopy (TEM) on P. aeruginosa. It counts as cell-based, Pseudomonas aeruginosa. How it is done: Method 1 for Example 2: Transmission Electron Microscopy (TEM) with A3-S—C1 on P. aeruginosa
Pseudomonas aeruginosa PAO1 in the exponential phase were washed with phosphate buffered saline (PBS) and treated with 5 μg/mL Polymyxin B, 40 μg/mL G3KL and 40 or 64 μg/mL […] in M63 minimal medium. Each time, 1 ml of the bacteria were centrifuged after 15, 30 and 60 min at 12′000 rpm for 3 min and fixed overnight with 2.5% glutaraldehyde (Agar Scientific, Stansted, Essex, UK) in 0.15 M HEPES (Fluka, Buchs, Switzerland) with an osmolarity of 670 mOsm and adjusted to a pH of 7.35. The next day, PAO1 were washed with 0.15 M HEPES three times for 5 min, post fixed with 1% OsO4 (SPI Supplies, West Chester, USA) in 0.1 M Na-cacodylate-buffer (Merck, Darmstadt, Germany) at 4° C. for 1 h. Thereafter, bacteria were washed in 0.1 M Na-cacodylate-buffer three times for 5 min and dehydrated in 70, 80, and 96% ethanol (Alcosuisse, Switzerland) for 15 min each at room temperature. Subsequently, they were immersed in 100% ethanol (Merck, Darmstadt, Germany) three times for 10 min, in acetone (Merck, Darmstadt, Germany) two times for 10 min, and finally in acetone-Epon (1:1) overnight at room temperature. The next day, bacteria were embedded in Epon (Fluka, Buchs, Switzerland) and hardened at 60° C. for 5 days. […]

In assay [5] the test system is S. aureus. Particulars: native peptide; cited from earlier work.
For assay [6], the system named is M. tuberculosis. Particulars: native peptide; cited from earlier work.

For orientation: MIC means the lowest concentration that inhibits growth of the organism.

Turning to “OP-145: linear AMP IGKEFKRIVERIKRFLRELVRPLR (SEQ ID NO: 12) (AMP)”, the results for the “MIC” value in assay [1], in assay [2] and in assay [3] were 9.2 to 18.3 µg/mL, 6.1 to 9.2 µg/mL and 18.3 µg/mL, respectively.
In the case of Polymyxin B, the “Effect on bacterial membranes (TEM imaging)” value in assay [4] is on record as “attacks only the outer membrane of the bacteria”. Moreover, the “Effect on P. aeruginosa (PA01)” value in assay [4] (TEM, concentration 5 μg/mL) is recorded as “Attack on the outer membrane”.
As for “IDR-1018: linear AMP VRLIVAVRIWRR (SEQ ID NO: 9) (AMP)”, the figures for the “MIC” value in assay [1], in assay [5] and in assay [6] were 19 µg/mL, 5 µg/mL and 16 µg/mL, respectively.

(Values after US12329822B2, “Antimicrobial tailored chitosan” (UNIVERSITÉ DE GENÈVE, priority 2019, dated 2025).)
